The test system of assay [1] is LPS-induced TNF alpha release in PBMCs. Put plainly: TNF alpha release assay. As to conditions: Homo sapiens, PBMC, 6 h, 1 μg/mL LPS. Format: cell-based. As to the method:
Freshly isolated peripheral blood mononuclear cells (PBMCs) were seeded in 96-well cell culture plates with 200,000 cells in 100 μl cell culture medium (DMEM cell culture medium+glutamine from PAN Biotech GmbH, Aidenbach, Germany) supplemented with 10% fetal calf serum (PAA Laboratories GmbH, Pasching, Austria) per well and incubated overnight at 37° C., 5% CO2. To each well, 100 μL cell culture medium with 2× concentrated test compounds diluted from 10 mM DMSO stocks, or 100 μL DMEM with 0.4% DMSO for control wells, was added. The compounds of general formula (I) summarized in Table 6 were used in this assay. After incubation for 1 h at 37° C., 5% CO2, cells were stimulated with 1 μg/mL LPS (Lipopolysaccharides, Sigma, catalog #L4391-1MG; 1 mg/ml stock solution), or left untreated for negative controls, and plates were incubated for 6 h at 37° C./5% CO2. The cell culture plates were centrifuged at 2000 rpm for 5 minutes, and supernatants were transferred to fresh 96-well polypropylene plates. 25 µL of supernatants were transferred into 96-well-plates of the human TNF alpha-tissue culture kit (Meso Scale Discovery, Gaithersburg, Md., USA), and manufacturer's instructions were followed for analysis of TNF alpha levels. Chemoluminescence was measured in the Mesoscale Sector Imager, and EC50 values were calculated with the software Excel Fit (IDBS, Guildford, UK) from 2-fold dilution series comprising at least 6 concentrations in duplicates.

The test system of assay [2] is RNA Polymerase II Ser2 phosphorylation (cellular CDK9 activity) in HCT-116 cells. Put plainly: RNA-Polymerase II Ser2 cellular phosphorylation assay. Format: cell-based. As to conditions: Homo sapiens, normalized with tubulin. As to the method:
HCT-116 cells (DSMZ, Braunschweig, Germany) were maintained in Mc Coy's cell culture medium+glutamine (PAN Biotech GmbH, Aidenbach, Germany) supplemented with 10% fetal calf serum (PAA Laboratories GmbH, Pasching, Austria) and grown at 37° C., 5% CO2. For the cellular phosphorylation assay, cells were seeded with 2×10^5 cells/well/1 ml in 24-well plates (Greiner Bio—One, Frickenhausen, Germany; catalog #662160). The compounds of general formula (I) summarized in Table 6 were diluted from a 10 mM DMSO stock solution 1:10 in a total volume of 15 μL DMSO. After overnight incubation at 37° C./5% CO2, 1.5 μL of a compound diluted in DMSO was added to each sample well. Wells with cells and 0.15% DMSO in culture medium were used as positive controls, wells without cells and 0.15% DMSO in culture medium were used as negative controls. The cells were incubated with the compounds for 72 h at 37° C./5% CO2. Before lysis, cells were washed with phosphate buffered saline. Phosphorylation of RNA Polymerase II Ser2 and tubulin levels for normalization were analyzed afterwards with the Multi-Array technology (Meso Scale Discovery, Gaithersburg, Md., USA), a combination of antibody coupled electrochemiluminescence detection and patterned arrays. Manufacturer's instructions were followed and all solutions were purchased from Meso Scale Discovery. In brief, cells were lysed by 30 min incubation in CLB1 lysis buffer (Zeptosens, Witterswil, Switzerland; 60 μL per well), and supernatants were cleared by centrifugation. For analysis of RNA Polymerase II Ser2-phosphorylation, lysates were diluted 1:50 with Meso Scale Lysis Buffer supplemented with phosphatase- and protease-inhibitors, and 25 µL of each sample was pipetted in a well of a MSD Multi-Array 96-Well Plate Sector® Imager High Bind Plate (Meso Scale Discovery; catalog #L15XB-3/L11XB-3), and incubated for 2 h at room temperature. […] Meso Scale Tris Wash Buffer supplemented with 3% w/v Meso Scale Blocker A were added per well, then plates were sealed and incubated 1 h with vigorous shaking. Plates were washed with 1× Tris Wash Buffer (10× Meso Scale Wash Buffer diluted 1:10 in destilled water), 25 μL of antibody solution was added (CTD7 3E10 antibody from Helmholtz Zentrum Munich, Germany, diluted 1:100 in Meso Scale Tris Wash Buffer supplemented with 1% w/v Meso Scale Blocker A), and plates were washed three times in 1× Tris Wash Buffer. 25 μL of MSD® SULFO-TAG™ Goat-Anti-Rat-Antibody (Meso Scale Discovery, catalog #R^32AH-1, diluted 1:125 in Tris Wash Buffer with 1% (w/v) blocker A) were added per well, plates were sealed and incubated with vigorous shaking for 1 h at room temperature. Finally, plates were washed three times with Tris Wash Buffer, 150 μl 2× Read Buffer (Meso Scale Discovery) were added per well and plates were analyzed immediately in a Sector Imager from Meso Scale Discovery. For determination of tubulin protein levels, samples were analyzed with the protocol for RNA Polymerase II Ser2-phosphorylation, with an anti-tubulin antibody (rabbit; BIODESIGN International, catalog #T59840R, diluted 1:100) and a MSD® SULFO-TAG™ […] (Meso Scale Discovery, catalog #R^32AH-1, diluted 1:125). RNA Polymerase II Ser2 phosphorylation was normalized with tubulin protein levels, and EC50 values were calculated with the software XLFit (IDBS, Guildford, UK) from 2-fold dilution series comprising 6 concentrations in duplicates.

The structures appear in SMILES notation. pIC50: −log10 of the molar value. Where a name gives a salt, the structure may show the parent alone.

By pIC50 is commonly meant the IC50 on a negative log10 scale, so that one unit is a factor of ten.

For the compound `COc1ccccc1-c1ncnc(Nc2cccc(CS(N)(=O)=O)c2)n1` [B1′, 3-[(4-(2-Methoxyphenyl)-1,3,5-triazin-2-yl)amino]benzenemethanesulfonamide trifluoroacetic acid salt], the negative-log IC50 (pIC50) was 5.57 in assay [1] and 4.96 in assay [2].
As to `COc1cc(F)ccc1-c1ncnc(Nc2cccc(CS(N)(=O)=O)c2)n1` [B2″, 1-(3-{[4-(4-fluoro-2-methoxyphenyl)-1,3,5-triazin-2-yl]amino}phenyl)methanesulfonamide trifluoroacetic acid salt], the pIC50 in assay [2] is 5.44.
In the case of `NS(=O)(=O)Cc1cccc(Nc2ncnc(-c3ccccc3OCc3ccccc3)n2)c1` [B13′, 3-[(4-(2-Benzyloxyphenyl)-1,3,5-triazin-2-yl)amino]benzenemethanesulfonamide trifluoroacetic acid salt], in assay [1], the pIC50 was 6.92.
On to `COc1ccccc1-c1ncnc(Nc2cccc(S(N)(=O)=O)c2)n1` [C1′, 3-[(4-(2-Methoxyphenyl)-1,3,5-triazin-2-yl)amino]benzenesulfonamide trifluoroacetic acid salt], for which the pIC50 in assay [1] was 6.30; in assay [2], 5.54.
Take `COc1cc(F)ccc1-c1ncnc(Nc2cccc(CS(N)(=O)=O)c2)n1` [Compound B2, 3-[(4-(4-Fluoro-2-methoxyphenyl)-1,3,5-triazin-2-yl)amino]benzenemethanesulfonamide]: in assay [1], the pIC50 is 5.99.
Turning to `COc1ccc(F)cc1-c1ncnc(Nc2cccc(CS(N)(=O)=O)c2)n1` [Compound B3, 3-[(4-(5-Fluoro-2-methoxyphenyl)-1,3,5-triazin-2-yl)amino]benzenemethanesulfonamide], the pIC50 in assay [1] is 5.49; in assay [2] it was 5.02.
For `COc1cccc(F)c1-c1ncnc(Nc2cccc(CS(N)(=O)=O)c2)n1` [Compound B4, 3-[(4-(6-Fluoro-2-methoxyphenyl)-1,3,5-triazin-2-yl)amino]benzenemethanesulfonamide], the pIC50 was 5.19 in assay [1] and 4.30 in assay [2].
As for `COc1cc(Cl)ccc1-c1ncnc(Nc2cccc(CS(N)(=O)=O)c2)n1` [Compound B6, 3-[(4-(4-Chloro-2-methoxyphenyl)-1,3,5-triazin-2-yl)amino]benzenemethanesulfonamide], the negative logarithm of the IC50 (pIC50) in assay [2] was 4.82.
Take `CCOc1ccccc1-c1ncnc(Nc2cccc(CS(N)(=O)=O)c2)n1` [Compound B12, 3-[(4-(2-Ethoxyphenyl)-1,3,5-triazin-2-yl)amino]benzenemethanesulfonamide]: the pIC50 in assay [2] is 4.76.
In the case of `NS(=O)(=O)Cc1cccc(Nc2ncnc(-c3ccccc3Oc3ccccc3)n2)c1` [Compound B14, 1-(3-{[4-(2-phenoxyphenyl)-1,3,5-triazin-2-yl]amino}phenyl)methanesulfonamide], in assay [2], the pIC50 was 4.84.
For `NS(=O)(=O)Cc1cccc(Nc2ncnc(-c3ccccc3OCc3ccncc3)n2)c1` [Compound B16, 3-[(4-(2-((4-Pyridinyl)methoxy)phenyl)-1,3,5-triazin-2-yl)amino]benzenemethanesulfonamide], the pIC50 in assay [2] is 4.92.
As for `COc1cnccc1-c1ncnc(Nc2cccc(CS(N)(=O)=O)c2)n1` [Compound B19, 3-[(4-(3-Methoxypyridin-4-yl)-1,3,5-triazin-2-yl)amino]benzenemethanesulfonamide], the figures for the pIC50 in assay [1] and in assay [2] were 4.98 and 4.81, respectively.
With `COc1ccccc1-c1ncnc(Nc2cccc(CCS(N)(=O)=O)c2)n1` [Compound D1, 2-[3-((4-(2-Methoxyphenyl)-1,3,5-triazin-2-yl)amino)phenyl]ethanesulfonamide], the pIC50 in assay [1] is 5.27.
With `COc1cc(F)ccc1-c1ncnc(Nc2cccc(CCS(N)(=O)=O)c2)n1` [Compound D2, 2-[3-((4-(4-Fluoro-2-methoxyphenyl)-1,3,5-triazin-2-yl)amino)phenyl]ethanesulfonamide], in assay [2], the pIC50 is 4.97.
Turning to `COc1ccccc1-c1ncnc(Nc2cccc([N+](=O)[O-])c2)n1` [Compound H1, 4-(2-Methoxyphenyl)-N-(3-nitrophenyl)-1,3,5-triazine-2-amine], in assay [1], the pIC50 was 5.53.
In assay [1], `COc1ccccc1-c1ncnc(Nc2cccc(NS(C)(=O)=O)c2)n1` [Compound K1, N-[3-((4-(2-Methoxyphenyl)-1,3,5-triazin-2-yl)amino)phenyl]-methanesulfonamide] showed a pIC50 of 5.35.
With `CCCS(=O)(=O)Nc1cccc(Nc2ncnc(-c3ccccc3OC)n2)c1` [Compound L1, N-[3-((4-(2-Methoxyphenyl)-1,3,5-triazin-2-yl)amino)phenyl]-propanesulfonamide], the values for the pIC50 in assay [1] and in assay [2] were 5.62 and below 4.52, respectively.
Regarding `COc1ccccc1-c1ncnc(Nc2ccccc2)n1` [Compound P1, 4-(2-Methoxyphenyl)-N-phenyl-1,3,5-triazine-2-amine], the pIC50 in assay [1] was 4.86.

For the origin of these results see US20130079345A1, “[…] ACTIVE DISUBSTITUTED TRIAZINE DERIVATIVES” (BAYER INTELLECTUAL PROPERTY GMBH, priority 2010, published 2013).
